# Laboratory results reported in patent US7981883B2, “Substituted spiro-compounds and the use thereof for producing medicaments” (Gruenenthal GmbH, priority 2005, dated 2011).
# Key:
# VR1 (rat) = target: T1, VR1 (rat) (Rattus norvegicus, UniProt O35433); experiment: Functional FLIPR Ca2+ inflow assay on rat-species vanilloid receptor 1 in rat dorsal root ganglia cells; type: cell-based; settings: test compound 10 μM; for inhibition at 10 µM / VR1 (rat) (% inhibition compared to 10 μM CP): then 100 nM capsaicin after 5 min, relative to maximum inhibition with 10 μM capsaicin; for inhibition at 10 µM: read-out: VR1 (rat) (% inhibition compared to 10 μM CP); for activation at 10 µM / VR1 (rat) (% stimulation compared to 10 μM CP): Ca2+ signal relative to 10 μM capsaicin (CP); for activation at 10 µM: read-out: VR1 (rat) (% stimulation compared to 10 μM CP)
# T1 construct: from tissue; host or cells: primary cells dissociated from rat dorsal root ganglia
# T1 sequence (O35433 whole entry): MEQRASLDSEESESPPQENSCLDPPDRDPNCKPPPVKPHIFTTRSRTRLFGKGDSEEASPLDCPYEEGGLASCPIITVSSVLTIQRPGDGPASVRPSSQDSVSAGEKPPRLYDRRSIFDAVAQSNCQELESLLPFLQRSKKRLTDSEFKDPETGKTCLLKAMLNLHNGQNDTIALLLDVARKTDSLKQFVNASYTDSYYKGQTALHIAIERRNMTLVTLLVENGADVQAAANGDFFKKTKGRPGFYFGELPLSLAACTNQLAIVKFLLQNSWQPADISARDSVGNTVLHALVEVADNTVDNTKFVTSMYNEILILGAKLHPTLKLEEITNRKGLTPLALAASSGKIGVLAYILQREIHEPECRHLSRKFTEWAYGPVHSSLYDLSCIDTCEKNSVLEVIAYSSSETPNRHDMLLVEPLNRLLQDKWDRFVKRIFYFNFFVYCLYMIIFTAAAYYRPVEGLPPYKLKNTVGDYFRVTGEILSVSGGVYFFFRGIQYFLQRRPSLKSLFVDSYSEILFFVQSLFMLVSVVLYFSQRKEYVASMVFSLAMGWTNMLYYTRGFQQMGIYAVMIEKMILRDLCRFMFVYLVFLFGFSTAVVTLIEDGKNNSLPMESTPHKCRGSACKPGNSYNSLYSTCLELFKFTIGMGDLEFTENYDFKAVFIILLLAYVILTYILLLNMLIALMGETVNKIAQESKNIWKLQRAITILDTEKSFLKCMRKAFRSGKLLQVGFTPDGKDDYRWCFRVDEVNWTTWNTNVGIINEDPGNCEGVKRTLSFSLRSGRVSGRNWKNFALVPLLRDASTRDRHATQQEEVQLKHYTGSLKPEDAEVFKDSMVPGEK
# Text: I. Functional Testing Carried Out on the Vanilloid Receptor 1 (VR1/TRPV1 Receptor)
# (§1) The agonistic or antagonistic effect of the substances to be tested can be determined on the rat-species vanilloid receptor 1 (VR1/TRPV1) using the following assay. According to this assay, the Ca^2+ inflow is quantified through the receptor channel using a Ca^2+-sensitive dye (type Fluo-4, Molecular Probes Europe BV, Leiden, Netherlands) in a fluorescent imaging plate reader (FLIPR, Molecular Devices, Sunnyvale, USA).
# Complete medium: 50 mL HAMS F12 nutrient mixture (Gibco Invitrogen GmbH, Karlsruhe, Germany) with
# 10% by volume of FCS (foetal calf serum, Gibco Invitrogen GmbH, Karlsruhe, Germany, […]);
# 2 mM L-glutamine (Sigma, Munich, Germany);
# 1% by weight of AA solution (antibiotic/antimyotic solution, PAA, Pasching, Austria) and 25 ng/ml NGF medium (2.5 S, Gibco Invitrogen GmbH, Karlsruhe, Germany)
# Cell culture plate: Poly-D-lysine-coated, black 96 well plates having a clear base (96 well black/clear plate, BD Biosciences, Heidelberg, Germany) were additionally coated with laminin (Gibco Invitrogen GmbH, Karlsruhe, Germany), the laminin being diluted with PBS (Ca—Mg-free PBS, Gibco Invitrogen GmbH, Karlsruhe, Germany) to a concentration of 100 μg/mL. Aliquots having a laminin concentration of 100 μg/mL were removed and stored at −20° C. The aliquots were diluted with PBS in a ratio of 1:10 to 10 μg/mL laminin and in each case 50 μL of the solution were pipetted into a recess in the cell culture plate. The cell culture plates were incubated for at least two hours at 37° C., the excess solution was removed by suction-filtration and the recesses were each washed twice with PBS. The coated cell culture plates were stored with excess PBS which was not removed until just before the feeding of the cells.
# The vertebral column was removed from decapitated rats and placed immediately into cold HBSS buffer (Hank's buffered saline solution, Gibco Invitrogen GmbH, Karlsruhe, Germany), i.e. buffer located in an ice bath, mixed with 1% by volume (percent by volume) of an AA solution (antibiotic/antimyotic solution, PAA, Pasching, Austria). The vertebral column was cut longitudinally and removed together with fasciae from the vertebral canal. Subsequently, the dorsal root ganglia (DRG) were removed and again stored in cold HBSS buffer mixed with 1% by volume of an AA solution. The DRG, from which all blood remnants and spinal nerves had been removed, were transferred in each case to 500 μL of cold type 2 collagenase (PAA, Pasching, Austria) and incubated for 35 minutes at 37° C. After the addition of 2.5% by volume of trypsin (PAA, Pasching, Austria), incubation was continued for 10 minutes at 37° C. After complete incubation, the enzyme solution was carefully pipetted off and 500 μL of complete medium were added to each of the remaining DRG. The DRG were in each case suspended several times, drawn through cannulae No. 1, No. 12 and No. 16 using a syringe and transferred to a 50 mL Falcon tube which was filled up to 15 mL with complete medium. The contents of each Falcon tube was in each case filtered through a 70 μm Falcon filter element and centrifuged for 10 minutes at 1,200 rpm and room temperature. The resulting pellet was in each case taken up in 250 μL of complete medium and the number of cells determined.
# The number of cells in the suspension was set to 3×10^5 per mL and 150 μL of this suspension were in each case introduced into a recess in the cell culture plates coated as described hereinbefore. In the incubator the plates were left for two to three days at 37° C., 5% by volume of CO2 and 95% relative humidity. […]
# VR1 (human) = target: T2, VR1 (human) (Homo sapiens, UniProt Q8NER1); experiment: Functional FLIPR Ca2+ inflow assay on VR1 (human), CHO K1 cells stably transfected with the VR1 gene; type: cell-based; settings: test compound 10 μM; for inhibition at 10 µM / activation at 10 µM: CHO-K1; for inhibition at 10 µM / VR1 (human) (% inhibition compared to 10 μM CP): then 100 nM capsaicin after 5 min, relative to maximum inhibition with 10 μM capsaicin; for inhibition at 10 µM: read-out: VR1 (human) (% inhibition compared to 10 μM CP); for activation at 10 µM / VR1 (human) (% stimulation compared to 10 μM CP): Ca2+ signal relative to 10 μM capsaicin (CP); for activation at 10 µM: read-out: VR1 (human) (% stimulation compared to 10 μM CP)
# T2 construct: expressed in transfected cells; host or cells: CHO K1 cells (ECACC)
# T2 sequence (Q8NER1 whole entry): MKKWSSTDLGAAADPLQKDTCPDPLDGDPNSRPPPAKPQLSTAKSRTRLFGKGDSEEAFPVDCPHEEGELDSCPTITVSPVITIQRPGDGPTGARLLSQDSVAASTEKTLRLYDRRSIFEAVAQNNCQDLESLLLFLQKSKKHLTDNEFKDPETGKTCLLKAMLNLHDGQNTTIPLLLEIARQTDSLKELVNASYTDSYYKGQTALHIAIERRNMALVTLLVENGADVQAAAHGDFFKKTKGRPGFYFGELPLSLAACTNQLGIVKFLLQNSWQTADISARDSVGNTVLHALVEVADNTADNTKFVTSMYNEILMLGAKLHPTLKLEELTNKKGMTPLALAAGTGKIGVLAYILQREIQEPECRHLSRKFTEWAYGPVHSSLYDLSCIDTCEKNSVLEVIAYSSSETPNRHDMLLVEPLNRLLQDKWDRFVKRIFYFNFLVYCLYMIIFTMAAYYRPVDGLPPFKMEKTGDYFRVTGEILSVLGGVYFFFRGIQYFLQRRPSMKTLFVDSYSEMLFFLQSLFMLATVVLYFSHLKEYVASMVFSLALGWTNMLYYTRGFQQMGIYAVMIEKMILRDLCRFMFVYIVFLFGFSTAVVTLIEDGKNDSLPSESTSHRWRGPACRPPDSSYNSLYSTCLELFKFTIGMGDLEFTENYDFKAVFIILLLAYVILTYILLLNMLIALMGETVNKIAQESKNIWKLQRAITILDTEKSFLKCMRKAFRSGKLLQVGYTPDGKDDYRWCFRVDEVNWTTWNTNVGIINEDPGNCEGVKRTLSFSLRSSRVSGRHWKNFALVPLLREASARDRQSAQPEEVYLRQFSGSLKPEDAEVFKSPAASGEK
# Text: II. Functional Testing Carried Out on the Vanilloid Receptor (VR1)
# as §1, with “can also” for “can”, “the” for “the rat-species”, “(VR1)” for “1 (VR1/TRPV1)”, “the” for “the receptor”
# Chinese hamster ovary cells (CHO K1 cells, European Collection of Cell Cultures (ECACC) United Kingdom) were stably transfected with the VR1 gene. For functional testing, these cells were plated out on poly-D-lysine-coated black 96 well plates having a clear base (BD Biosciences, Heidelberg, Germany) at a density of 25,000 cells/well. The cells were incubated overnight at 37° C. and 5% CO2 in a culture medium (Ham's F12 nutrient mixture, 10% by volume of FCS (foetal calf serum), 18 μg/ml L-proline). The next day the cells were incubated with Fluo-4 (Fluo-4 2 μM, 0.01% by volume of Pluronic F127, Molecular Probes in HBSS (Hank's buffered saline solution), Gibco Invitrogen GmbH, Karlsruhe, Germany) for 30 minutes at 37° C. Subsequently, the plates were washed three times with HBSS buffer and after further incubation for 15 minutes at room temperature used for Ca^2+ measurement in a FLIPR assay. The Ca^2+-dependent fluorescence was measured before and after the addition of the substances to be tested (λex wavelength=488 nm, λem=540 nm). Quantification was carried out by measuring the highest fluorescence intensity (FC, Fluorescence Counts) over time.
# The FLIPR protocol consists of 2 substance additions. First the compounds to be tested (10 μM) were pipetted onto the cells and the Ca^2+ inflow was compared with the control (capsaicin 10 μM) (% activation based on the Ca^2+ signal after the addition of 10 μM capsaicin). After 5 minutes' incubation, 100 nM of capsaicin were administered and the Ca^2+ inflow was also determined.
# Desensitising agonists and antagonists led to suppression of the Ca^2+ inflow. The % inhibition was calculated compared to the maximum achievable inhibition with 10 μM of capsaicin.
SMILES,inhibition at 10 µM (VR1 (rat)),activation at 10 µM (VR1 (rat)),inhibition at 10 µM (VR1 (human)),activation at 10 µM (VR1 (human)),VR1 (rat) (% inhibition compared to 10 μM CP) (VR1 (rat)),VR1 (rat) (% stimulation compared to 10 μM CP) (VR1 (rat)),VR1 (human) (% inhibition compared to 10 μM CP) (VR1 (human)),VR1 (human) (% stimulation compared to 10 μM CP) (VR1 (human))
"CC(C)(C)C1CCC2(CC1)CC(C(=O)NCc1ccc(N)cc1)=NO2 (stereo not drawn) [Example 1, 8-tert-butyl-1-oxa-2-azaspiro[4.5]dec-2-ene-3-carboxylic acid-4-aminobenzylamide]",71.3%,44.7%,23.6%,20.7%,–,–,–,–
"CC(C)(C)C1CCC2(CC1)CC(C(=O)NCc1ccc(NS(C)(=O)=O)cc1)=NO2 (stereo not drawn) [Example 2, trans-8-tert-butyl-1-oxa-2-azaspiro[4.5]dec-2-ene-3-carboxylic acid-4-methanesulphonylaminobenzylamide]",–,–,–,–,100.87%,−15.97%,58.09%,−0.32%
"CC(C)(C)[C@H]1CC[C@]2(CC1)CC(C(=O)N1CCN(c3ncccc3C(F)(F)F)CC1)=NO2 [Example 8, trans-(8-tert-butyl-1-oxa-2-azaspiro[4.5]dec-2-en-3-yl)-[4-(3-trifluoromethylpyridin-2-yl)piperazin-1-yl]methanone]",–,–,–,–,97.15%,0.57%,20.73%,0.22%
"CC(C)(C)[C@H]1CC[C@@]2(CC1)CC(C(=O)N1CCN(c3nsnc3Cl)CC1)=NO2 [Example 17, cis-(8-tert-butyl-1-oxa-2-azaspiro[4.5]dec-2-en-3-yl)-[4-(4-chloro-[1,2,5]thiadiazol-3-yl)piperazin-1-yl]methanone]",–,–,–,–,58.92%,0.33%,14.95%,−0.05%

# Other lines, results leading:
inhibition at 10 µM (VR1 (rat)),activation at 10 µM (VR1 (rat)),inhibition at 10 µM (VR1 (human)),activation at 10 µM (VR1 (human)),VR1 (rat) (% inhibition compared to 10 μM CP) (VR1 (rat)),VR1 (rat) (% stimulation compared to 10 μM CP) (VR1 (rat)),VR1 (human) (% inhibition compared to 10 μM CP) (VR1 (human)),VR1 (human) (% stimulation compared to 10 μM CP) (VR1 (human)),SMILES
–,–,–,–,102.62%,0.10%,80.10%,−1.29%,"CC(C)(C)C1CCC2(CC1)CC(C(=O)NCc1ccc(NS(C)(=O)=O)cc1)=NO2 (stereo not drawn) [Example 3, cis-8-tert-butyl-1-oxa-2-azaspiro[4.5]dec-2-ene-3-carboxylic acid-4-methanesulphonylaminobenzylamide]"
73.7%,-0.54%,76.3%,-0.33%,–,–,–,–,"CC(C)(C)C1CCC2(CC1)CC(C(=O)Nc1cccc3cnccc13)=NO2 (stereo not drawn) [Example 4, 8-tert-butyl-1-oxa-2-azaspiro[4.5]dec-2-ene-3-carboxylic acid isoquinolin-5-ylamide]"
–,–,–,–,22.95%,8.77%,17.54%,2.84%,"CC(C)(C)[C@H]1CC[C@]2(CC1)CC(C(=O)N1CCN(c3ccc(O)cc3)CC1)=NO2 [Example 10, trans-(8-tert-butyl-1-oxa-2-azaspiro[4.5]dec-2-en-3-yl)-[4-(4-hydroxyphenyl)piperazin-1-yl]methanone]"
–,–,–,–,62.42%,−0.37%,28.56%,−0.05%,"CC(C)(C)[C@H]1CC[C@@]2(CC1)CC(C(=O)N1CCN(c3ccc(O)cc3)CC1)=NO2 [Example 11, cis-(8-tert-butyl-1-oxa-2-azaspiro[4.5]dec-2-en-3-yl)-[4-(4-hydroxyphenyl)piperazin-1-yl]methanone]"
94.3%,112%,79.9%,101%,–,–,–,–,"CC(C)(C)C1CCC2(CC1)CC(C(=O)N1CCc3cc(O)c(O)cc3C1)=NO2 (stereo not drawn) [Example 12, (8-tert-butyl-1-oxa-2-azaspiro[4.5]dec-2-en-3-yl)-(6,7-dihydroxy-3,4-dihydro-1H-isoquinolin-2-yl)methanone]"
